Entries after “also recorded” stand apart in the source; their conditions may differ.
Key:
HCT-8 cytotoxicity assay = type: cell-based; conditions: human; sub-confluent (~40% confluency); read-out: EC50 cytotoxicity against sub-confluent HCT-8 cells
Description: (§1) HCT-8 and HFF cytotoxicity assays: Cytotoxicity of the compounds was determined against both confluent (the conditions of the infection assays) and growing HCT-8 and HFF host cells, as previously described. Cells were seeded into white-sided, clear-bottom 96-well plates and grown to either 40% or 100% confluency. Compounds were added to cells at various concentrations up to 100 µM in a final DMSO concentration of 0.5%. DMSO was run in parallel as a vehicle control. After 48 h, the viability of the cells was determined by either quantification of cellular ATP (Cell-Titer Glo cell viability assay; Promega, Madison WI, USA) or by MTT assay. Viability was determined 24 h after compound addition to HFF cells or 48 h after compound addition to HCT-8 cells or HepG2 cells. The percent cell growth was then calculated with the following formula: % Cell Growth = [RLUcompound/RLUDMSO] × 100. Samples were run in triplicate with two to three biological replicates.

HCT-8 cells = test: HCT-8 cytotoxicity assay; type: cell-based
Description: as §1

HepG2 human hepatocytes = test: HepG2 cytotoxicity assay (MTS); type: cell-based; conditions: 48 h, mean +/- SD
Description: HepG2 cytotoxicity assay: Mammalian cell cytotoxicity was assessed in HepG2 human hepatocytes using an MTS 3-(4,5-dimethylthiazol-2-yl)-5-(3-carboxymethoxyphenyl)-2-(4-sulfophenyl)-2H-tetrazolium)-based cytotoxicity assay. For cytotoxicity testing, ∼2250 cells were seeded into each well of a 384-well microtiter plate and incubated for 24 h. Serial dilutions of the compounds were added in triplicate starting at 25 μM. Cells were further incubated for an additional 48 h at 37 °C in an atmosphere containing 5% CO2. Zero-growth control wells were incubated with 5% Triton X-100 for 5 min prior to MTS addition. Following the addition of MTS to all wells, the plates were incubated for an additional 4 h under the same environmental conditions before taking absorbance measurements. Absorbance values were recorded at 490 nm using a Synergy Neo2 multimode reader (BioTek), and values were normalized based on Triton X-100-lysed and no treatment controls. Samples were run in triplicate in each assay, and the experiments were repeated three times.

[1] = PAMPA membrane permeability assay; type: in vitro ADME
Description: PAMPA membrane permeability assay. The membrane permeability of selected compounds was evaluated using the Corning® BioCoat^TM Pre-coated PAMPA Plate System (catalog. No. 353015, Corning, Glendale, AZ, USA). The pre-coated plate assembly, which was stored at −20 °C, was thawed for 30 min at room temperature. The permeability assay was carried out in accordance with the manufacturer’s protocol. Briefly, the 96-well filter plate, pre-coated with lipids, was used as the permeation acceptor and a matching 96-well receiver plate was used as the permeation donor. […] At the end of the incubation, the plate was separated, and the final concentrations of compounds in both donor wells and acceptor wells were analyzed using LC-MS/MS. Permeability of the compounds was calculated using Equation (1): Pe = {−ln [1 − CA(t)/Ceq]}/[A × (1/VD + 1/VA) × t](1) where A = filter area (0.3 cm^2), VD = donor well volume (0.3 mL), VA = acceptor well volume (0.2 mL), t = incubation time (seconds), CA(t) = compound concentration in acceptor well at time t, and CD(t) = compound concentration in donor well at time t. Ceq was calculated using Equation (2): Ceq = [CD(t) × VD + CA(t) × VA]/(VD + VA)(2) […]

C. parvum oocysts = test: C. parvum oocyst excystation assay; type: cell-based, Cryptosporidium parvum; conditions: 7.5 µM, 1-hour incubation
Description: (§2) C. parvum excystation and invasion assays: Oocyst excystation rates in the presence of compounds were determined as previously described. The C. parvum invasion inhibition assays were conducted in two formats. In the first format, described previously, HCT-8 cells were seeded on glass slides (CELLTREAT Scientific Product, Pepperell, MA, USA) and allowed to grow to confluence. Oidiolactone A was added to the cells for one hour. TrtE and DMSO were run in parallel as positive and negative controls, respectively. The cell monolayers were then infected with 1.2 × 10^6 wild-type C. parvum oocysts. After 3 h of incubation at 37 °C, the slides were washed five times with 111 mM D-galactose, fixed with 4% paraformaldehyde, and permeabilized with 0.25% Triton-X. C. parvum sporozoites were detected with rabbit anti-gp40 [39] and Alexa Fluor 594 goat anti-rabbit antibodies. The HCT-8 cell nuclei were stained with 0.09 mM Hoechst. Slides were coded to enable unbiased counting, and sporozoites from at least 10 randomly selected fields were counted in each sample at 100× magnification (Zeiss® Axioscope 5). The percentage of invaded parasites was determined using the following equation: % Invaded parasites = [parasitescompound/parasitesDMSO] × 100. This experiment was run in duplicate with two biological replicates.

C. parvum sporozoites = test: C. parvum invasion inhibition assay; type: cell-based, Cryptosporidium parvum; conditions: 7.5 µM, 3 h infection, luciferase and IFA formats
Description: as §2, with “replicates. […]” for “replicates.”

HuF fibroblast cell line = conditions: cited from earlier work
P. falciparum line Dd2 = test: Plasmodium falciparum growth inhibition assay (SYBR Green I), Dd2
Description: Plasmodium falciparum growth inhibition assay: Antiplasmodial EC50 results were determined using a fluorescence-based SYBR Green I assay performed using asynchronous cultures [30, 35]. […] Plates were subsequently frozen at −80 °C to facilitate lysis. […] Relative fluorescence units (RFUs) were normalized based on chloroquine-treated and no treatment controls. Serial dilutions of compounds were prepared in RPMI with final assay conditions of ≤0.2% DMSO. Each assay was conducted in triplicate with three biological replicates.

## CO[C@H]1OC(=O)C=C2[C@@]13O[C@@H]3[C@H]1OC(=O)[C@@]3(C)CCC[C@@]2(C)[C@@H]13 [compound 1, oidiolactone A]
HCT-8 cytotoxicity assay
  EC50 at 48 h: 29.7 µM
HCT-8 cells; confluent
  TC50 HCT-8 (confluent): > 30 µM
HCT-8 cells; confluent HCT-8, conditions of the infection assay, 48 h, cellular ATP
  toxicity to host cells (no toxicity up to): > 100 µM
HCT-8 cells; sub-confluent
  TC50 HCT-8 (sub-confluent): 29.7 ± 1.8 µM
HepG2 human hepatocytes
  TC50 HepG2: > 25 µM
[1]; PAMPA, 25 °C, 5 h, 100 μmol/L, read-out: PAMPA Pe
  Papp at 5 h, 100 μmol/L: 11 ± 1.3 ×10⁻⁶ cm/s
[1]; cutoff Pe 1.5 × 10^−6 cm/s
  PAMPA permeability class: high passive permeability
C. parvum oocysts
  effect on oocyst excystation: no effect
C. parvum sporozoites
  effect on parasite invasion: no effect; also recorded: did not exhibit any effect
HuF fibroblast cell line
  cytotoxicity against human fibroblast: no cytotoxicity observed
HuF fibroblast cell line; sub-confluent, ref Rusman et al. 2020 [25]
  TC50 HuF (sub-confluent): > 30 µM
P. falciparum line Dd2
  SI: selectivity index=EC50 HepG2/ EC50 compound: > 11
P. falciparum line Dd2; Plasmodium falciparum, DD2, 72 h, read-out: EC50 Dd2 (M)
  EC50: 2.26e-06 ± 4.6e-07 M
